What all share (assay type): in vivo, human
For assay [1], the system named is inflammation, dermatitis, or eczema lesions. The assay is described as follows: Topical application to chronic inflammation, dermatitis, eczema or allergic skin lesions, clinical evaluation. The settings on record: for skin color of treated skin compared to surrounding untreated skin: 4 weeks, 0.5% N-Ac-L-Tyr-L-Tyr-NH2 solution or 0.4% N-Ac-L-Val-L-Ala-NH2 in WEP442. An excerpt:
In another embodiment, the volunteer subject topically applied the test compositions containing N-acyldipeptide derivatives of the present invention on involved skin or lesions once or twice daily for several weeks or until the involved lesions completely cleared and clinically changed to normal skin. As a control study, the subject also topically applied a vehicle control composition on the involved skin or lesions twice daily for the same period.

For assay [2], the system named is Aging related changes of skin, nail and hair. The assay is described as follows: Summary of test results in volunteer subjects: aging related changes. Particulars: efficacy grade.
Another assay concerns Nerve disorders. The assay is described as follows: Summary of test results in volunteer subjects: nerve disorders. The settings on record: efficacy grade. An outline of the steps:
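Volunteers applied N-acyldipeptide derivatives dissolved in water/ethanol/propylene glycol (40:40:20), ethanol/propylene glycol (80:20), or water/propylene glycol (80:20) mixed into cream, once or twice daily for several weeks or until lesions cleared. Vehicle control applied twice daily; application also over arthritic joints or painful muscles.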

The test system of the next assay is Disturbed keratinization. The assay is described as follows: Summary of test results in volunteer subjects: disturbed keratinization. Particulars: efficacy grade. An outline of the steps: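 Volunteers applied N-acyldipeptide derivatives dissolved in water/ethanol/propylene glycol 40:40:20, ethanol/propylene glycol 80:20, or water/propylene glycol 80:20 mixed into oil-in-water cream, on involved skin once or twice daily for several weeks or until clearing. Vehicle applied twice daily as control; disturbed keratinization lesions assessed clinically.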

Assay [3] deals with Deranged immune disorders and inflammation. Briefly: Summary of test results in volunteer subjects: deranged immune disorders and inflammation. Particulars: efficacy grade. An outline of the steps:
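Volunteers applied N-acyldipeptide derivatives topically once or twice daily for several weeks or until lesions cleared. Compounds were dissolved in water/ethanol/propylene glycol (40:40:20) or ethanol/propylene glycol (80:20), or in water/propylene glycol (80:20) mixed into an oil-in-water cream. Vehicle control applied twice daily.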

[4] abbreviates: chronic eczema right leg, twice daily.
The mark [5] stands for this setting: chronic eczema right leg, twice daily, 0.5% (w/v) N-Ac-L-Tyr-L-Tyr-NH2 solution pH 6.7 on one lesion, 0.4% (w/v) N-Ac-L-Val-L-Ala-NH2 in WEP442 pH 5.8 on second.
The mark [6] stands for this setting: chronic eczema of legs, twice daily, 2% (w/v) N-Ac-L-Val-L-Ala-NH2 cream on one leg, 0.5% (w/w) N-Ac-L-Tyr-L-Tyr-NHNHAc in WEP442 pH 5.5 on the other.

Peptide text beside a SMILES is read from it.

Turning to `CC(=O)N[C@@H](Cc1ccc(O)cc1)C(=O)N[C@@H](Cc1ccc(O)cc1)C(N)=O` [N-Ac-L-Tyr-L-Tyr-NH2] (Ac-Tyr-Tyr-NH2), in assay [1] (setting [4]), the “skin color of treated skin compared to surrounding untreated skin” value was “much lighter in skin color”. In addition, in assay [1] (setting [5]), the “itch after topical application” value is “stopped within a few minutes”. In assay [2], the AG is on record as 4+ (4+: 95-100% Efficacy). For the same compound, in the assay on Nerve disorders, the ND was 4+ (4+: 95-100% Efficacy). Besides, the DK in the assay on Disturbed keratinization is recorded as 4+ (4+: 95-100% Efficacy). The DI in assay [3] is reported as 4+ (4+: 95-100% Efficacy).
Take `CC(=O)NNC(=O)[C@H](Cc1ccc(O)cc1)NC(=O)[C@H](Cc1ccc(O)cc1)NC(C)=O` [N-Ac-L-Tyr-L-Tyr-NHNHAc]: the “itch after topical application” value in assay [1] (setting [6]) was “stopped within a few minutes”; in assay [1] (chronic eczema, twice daily, 0.6% (w/w) N-Ac-L-Tyr-L-Tyr-NHNH2 cream on one set of lesions, 0.7% (w/w) N-Ac-L-Tyr-L-Tyr-NHNHAc cream on another), “stopped immediately”. Further, the “improvement as judged by clinical evaluation” value in assay [1] (chronic eczema, twice daily, two weeks, 0.6% (w/w) N-Ac-L-Tyr-L-Tyr-NHNH2 cream on one set of lesions, 0.7% (w/w) N-Ac-L-Tyr-L-Tyr-NHNHAc cream on another) is reported as 100%. Besides, the AG in assay [2] is listed as 3+ (3+: 75% Efficacy). Besides, the ND in the assay with Nerve disorders is listed as 4+ (4+: 95-100% Efficacy). Also, in the assay with Disturbed keratinization, the DK is reported as 4+ (4+: 95-100% Efficacy). The DI in assay [3] is listed as 4+ (4+: 95-100% Efficacy).
On to `CC(=O)N[C@H](C(=O)N[C@@H](C)C(N)=O)C(C)C` [N-Ac-L-Val-L-Ala-NH2] (Ac-Val-Ala-NH2), for which the “itch after topical application” value is given as “stopped within a few minutes” in assay [1] (0.5% (w/w) cream twice daily, skin allergy from shellfish with reddish papules); “stopped within a few minutes” in assay [1] (setting [6]); “stopped within a few minutes” in assay [1] (setting [5]). In addition, the “improvement as judged by clinical evaluation” value in assay [1] (0.5% (w/w) cream twice daily, skin allergy from shellfish, end of 5 days) is given as 75%. In assay [1] (setting [4]), the “skin color of treated skin compared to surrounding untreated skin” value was “much lighter in skin color”. Further, the AG in assay [2] is on record as 4+ (4+: 95-100% Efficacy). Besides, in the assay on Nerve disorders, the ND is 4+ (4+: 95-100% Efficacy). Further, the DK in the assay with Disturbed keratinization is recorded as 4+ (4+: 95-100% Efficacy). Also, the DI in assay [3] is recorded as 4+ (4+: 95-100% Efficacy).
